From patent US8314123B2, “5, 6, or 7-substituted -3-(hetero) arylisoquinolinamine derivatives and therapeutic use thereof” (Rexahn Pharmaceuticals, Inc., priority 2006, dated 2012) come the findings set out here.

Broadly, the IC50 is the point on the concentration scale where inhibition reaches its midpoint. The melting point is the temperature of the solid-liquid transition.

Read-outs that look alike come from different tables or passages of the source.

The subject of data set [1] is PANC-1 (pancreas). Description: In vitro cell proliferation assay (SRB), PANC-1. In kind it is cell-based. The following applies: Homo sapiens, SRB method, 96 hours, read-out: Inhibition of cell growth (IC50, μM) PANC-1. In short, it runs like this: (§1)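 SNB-19, SK-MEL-28 and HCT116 were grown in RPMI1640 or DMEM with 10% FBS, PANC-1 in DMEM with 10% FBS. Triplicate treatments ran 96 h before SRB staining and absorbance reading at 530 nm; IC50 derived by non-linear regression.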
Background: The SRB assay estimates cell density from bound dye.

Data set [2] deals with HCT116 (colon). Description: In vitro cell proliferation assay (SRB), HCT116. In kind it is cell-based. The settings on record: Homo sapiens, HCT-116. In short, it runs like this:
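Read-out is OD530 after sulforhodamine B staining of TCA-fixed cells, translated into live-cell counts using standard curves generated for each line. Survival relative to DMSO-treated wells after 96 h treatment gave IC50 values by non-linear regression.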

Data set [3] concerns PC3 (prostate). Put plainly: In vitro cell proliferation assay (SRB), PC3. The format is cell-based. The settings on record: Homo sapiens; SRB method, 96 hours; read-out: Inhibition of cell growth (IC50, μM) PC3. The method, boiled down:
(§2)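 Cells seeded at 2-3×10^3 per well were exposed to compound the following day for 96 hours at 37° C under 5% CO2, with DMSO as control. After TCA fixation and sulforhodamine B staining, absorbance at 530 nm was converted to live-cell number via per-line standard curves; IC50 from non-linear regression of % survival.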

The test system of data set [4] is paclitaxel-resistant HCT-15 colorectal cancer cells. Put plainly: In vitro antitumor effects against paclitaxel-resistant HCT-15 cells. In kind it is cell-based, Human. The following applies: for IC50: Homo sapiens, paclitaxel-resistant HCT-15, Table 5, read-out: Inhibition of cell growth, IC50 (μM) HCT-15. As to the method:
(§3) Cancer cell lines to determine the effect of 5, 6, or 7-substituted-3-(hetero)arylisoquinolinamine compounds were obtained from the following sources: Human MDA-MB-231 (breast), PC3 (prostate), HCT-15 (colon), HCT116 (colon), OVCAR-3 (ovary), Caki-1 (kidney), PANC-1 (pancreas), SNB-19 (glioblastoma) and SK-MEL-28 (melanoma) from the American Type Culture Collection (ATCC) (Manassas, Va.). PC3, OVCAR-3, SK-MEL-28 and SNB-19 were grown in RPMI1640 medium (Invitrogen, Carlsbad, Calif.) supplemented with 10% fetal bovine serum (“FBS”), 1 mM sodium pyruvate, 10 mM HEPES and 100 U/ml penicillin and 100 μg/ml streptomycin (“P/S”). MDA-MB-231, Caki-1, HCT-15 (colon) and PANC-1 cells were maintained in Dulbecco's modified Eagle's medium (“DMEM”, Invitrogen) supplemented with 10% FBS, P/S and 10 mM HEPES. HCT116 cells were maintained in DMEM supplemented with 10% FBS, P/S and 10 mM HEPES for in vitro cell proliferation assay and in RPMI1640 medium supplemented with 10% FBS, 1 mM sodium pyruvate, 10 mM HEPES and P/S for in vitro cell cycle analysis. All cells were incubated at 37° C. under humidified 5% CO2.
(§4) The growth inhibition assay of representative 5, 6, or 7-substituted-3-(hetero)arylisoquinolinamine derivatives against human tumor cell lines was performed using the Sulforhodamine B (“SRB”) method (Skehan et al., J. National Cancer Institute, 82: 1107-1112 (1990)). Briefly, exponentially growing tumor cells were seeded into a 96-well plate at a density of 2-3×10^3 cells/well and treated with 5, 6, or 7-substituted-3-(hetero)arylisoquinolinamine compounds the next day. Triplicate wells were used for each treatment. The cells were incubated with the various compounds for 96 hours at 37° C. in a humidified 5% CO2 atmosphere. After 96-hour incubation, cells were fixed with 10% trichloroacetic acid (“TCA”), incubated for 1 hour at 4° C., and washed 3 times with tap water. Subsequently, cells were stained with 0.4% sulforhodamine B in 1% acetic acid for 30 minutes, washed 4 times with 1% acetic acid, and air-dried again. After 5 minutes agitation in 10 mM Tris solution, the absorbance of each well was measured at 530 nm using Benchmark Plus Microplate reader (Bio-Rad Laboratories, Hercules, Calif.).
(§5) To translate the OD530 values into the number of live cells in each well, the OD530 values were compared to those on standard OD530-versus-cell number curves generated for each cell line. The percent survival was calculated using the formula: % Survival=live cell number [test]/live cell number [control]×100
(§6) The IC50 values were calculated by non-linear regression analysis.
Compound 13 and 14 were tested in colon cancer cells and their antitumor activities were compared with paclitaxel (Taxol®).

For data set [5], the system named is MDA-MB-231 (breast). Put plainly: In vitro cell proliferation assay (SRB), MDA-MB-231. The format is cell-based. The following applies: Homo sapiens, SRB method, 96 hours, read-out: Inhibition of cell growth (IC50, μM) MDA-MB-231. The method, boiled down:
as §2

Data set [6] deals with human cancer cell lines. Description: Growth inhibition against the panel of human tumor cell lines (SRB), overall statements. The format is cell-based. The following applies: Table 3 cell lines. As to the method: as §3
The growth inhibition of the 5, 6, or 7-substituted-3-(hetero)arylisoquinolinamine derivatives against a variety of human tumor cells was evaluated to study the relative importance of particular substituent groups on the compounds. The 5, 6, or 7-substituted-3-(hetero)arylisoquinolinamine derivatives, prepared as described above, were tested with DMSO as a control.
as §4, §5, §6
Using QSAR and medicinal chemistry techniques, a large number of compounds, including the compounds shown in Table 1-2 above, were synthesized. The synthesized compounds were screened against at least four cancer cell lines, PANC-1, MDA-MB-231, HCT116 and Caki-1, at approximately 1 μM concentration. Compounds showing activity in at least one of these cell lines were selected for further screening. From these compounds, thirty compounds were selected for further evaluation as broad-spectrum anti-proliferative agents as shown in the following Table 3.

Data set [7] has as its system SNB-19 (glioblastoma). Put plainly: In vitro cell proliferation assay (SRB), SNB19. The following applies: Homo sapiens, SRB method, 96 hours, read-out: Inhibition of cell growth (IC50, μM) SNB19. The format is cell-based. The method, boiled down:
as §1

The test system of data set [8] is HCT15 human colon carcinoma xenografts. Description: Ex vivo xenograft study of nude mice. The format is in vivo. The settings on record: 10 mg/kg/day intraperitoneal, three times per week; for % Inhibition of HCT-15 human colorectal cancer in mice at 29 days: day 10 to day 29, nude mice. As to the method:
In order to observe the inhibition of growth of tumor in an animal model, an ex vivo xenograft study of nude mice was conducted utilizing Compound 13. Paclitaxel-resistant HCT15 cell suspension (1×10^6 cells in 0.2 ml of RPMI) was injected subcutaneously into the right flank of six-week-old female athymic mice (BALB/c nu/nu) on day 0. A sufficient number of mice were injected with HCT15 cell suspension so that tumors in a volume range as narrow as possible were selected for the trial on the day of treatment initiation. Animals with tumors in the proper size range were assigned to various treatment groups. Palcitaxel was used as a positive control. Compound 13 and paclitaxel were dissolved in 5 Cremophor and 5% ethanol in PBS and solvent alone served as vehicle control. All study medications (vehicle control, paclitaxel: 10 mg/kg/day, Compound 13: 10 mg/kg/day) were given by intraperitoneal injections three times per week starting from day 10 and ending on day 29 after inoculation of HCT15 cells. To quantify tumor growth, three perpendicular diameters of the tumors were measured with calipers every 3-5 days, and the body weight of the mice was monitored for toxicity. The tumor volume was calculated using the formula: tumor volume (mm^3)=(width)×(length)×(height)×π/6.
On the technique in general: Xenograft models place foreign cells or tissue in a host animal.

The subject of data set [9] is SK-MEL-28 (melanoma). Description: In vitro cell proliferation assay (SRB), SK-MEL-28. In kind it is cell-based. The settings on record: Homo sapiens, SRB method, 96 hours, read-out: Inhibition of cell growth (IC50, μM) SK-MEL-28. In short, it runs like this: as §1
The subject of data set [10] is OVCAR-3 (ovary). Description: In vitro cell proliferation assay (SRB), OVCAR3. In kind it is cell-based. The settings on record: Homo sapiens, SRB method, 96 hours, read-out: Inhibition of cell growth (IC50, μM) OVCAR3. The method, boiled down: as §2
Data set [11] deals with Caki-1 (kidney). Put plainly: In vitro cell proliferation assay (SRB), Caki-1. In kind it is cell-based. The settings on record: Homo sapiens, SRB method, 96 hours, read-out: Inhibition of cell growth (IC50, μM) Caki-1. In short, it runs like this:
as §2

[12] abbreviates: SRB method, 96 hours, Table 3, read-out: Inhibition of cell growth (IC50, μM) HCT116.
Setting [13] is: Table 5, read-out: Inhibition of cell growth, IC50 (μM) HCT116.

For the molecule `COc1cccc(-c2cc3ccc(N(C)C)cc3c(N)n2)c1.Cl` [Compound 13, 3-(3-methoxyphenyl)-N^7,N^7-dimethylisoquinoline-1,7-diamine hydrochloride], the 50% inhibitory concentration (IC50) in data set [1] is 0.019 µM; in data set [2] (setting [12]), 0.017 µM; in data set [2] (setting [13]), 0.017 µM; in data set [3], 0.019 µM; in data set [4], 0.015 µM; in data set [5], 0.021 µM. Besides, the IC50 in data set [7] was determined as 0.032 µM; in data set [9], 0.032 µM; in [10], 0.014 µM; in [11], 0.022 µM. Moreover, in data set [4] (paclitaxel-resistant HCT-15 colorectal cancer cells), the “antitumor activity compared with paclitaxel” value is listed as “higher antitumor activities than that of paclitaxel”. Besides, the “activity in growth inhibition of human cancer cell compared to Compound 23” value in data set [6] was “equal or better activity”. For the same molecule, the “times more active than compound 23 in tested cell lines” value in [6] was “five to thirteen times more active”. For the same molecule, in data set [8], the “% Inhibition of HCT-15 human colorectal cancer in mice at 29 days” value is 69.2%. In addition, the Tolerability of treatment entry in data set [8] (nude mice) is reported as “well tolerated without deaths”. Besides, the body weight fluctuations entry in [8] (nude mice) is “no more than 1 g”.
As to `Cc1ccc2c(N)nc(-c3ccccc3C)cc2c1.Cl` [Compound 23, 6-Methyl-3-o-tolylisoquinolin-1-amine hydrochloride salt], the melting point is 269.1 to 270.2 °C. In addition, the IC50 in [1] amounted to 0.24 µM. Besides, the IC50 in [2] (setting [12]) is 0.19 µM. Also, the IC50 in [3] came to 0.24 µM. In addition, in data set [5], the IC50 was 0.15 µM. Further, the IC50 in data set [7] was 0.26 µM. Further, in [9], the IC50 came out at 0.35 µM. Also, the IC50 in [10] was determined as 0.15 µM. Also, the IC50 in [11] was 0.12 µM.
For `CC(=O)O[C@H]1C(=O)[C@@]2(C)[C@H]([C@H](OC(=O)c3ccccc3)[C@]3(O)C[C@H](OC(=O)[C@H](O)[C@@H](NC(=O)c4ccccc4)c4ccccc4)C(C)=C1C3(C)C)[C@]1(OC(C)=O)CO[C@@H]1C[C@@H]2O` [Paclitaxel, paclitaxel, reference compound], the IC50 in data set [2] (setting [13]) was 0.002 µM; in data set [4], 0.14 µM. The “loss of activity in HCT-15 cells when IC50 values compared in both colon cancer cells” value in data set [4] (HCT-15 versus HCT116) is recorded as 70 fold. In [8], the “% Inhibition of HCT-15 human colorectal cancer in mice at 29 days” value is on record as 48.8%.
